Key:
[1] = molecular target: T1, Transcription regulator protein BACH1 (Homo sapiens) (UniProt O14867); assay: Inhibition of Bach1 in normal human lung fibroblasts assessed as induction of HMOX protein expression by measuring HMOX positive cells level at 0.019 uM in presence of 0.3 uM Nrf2 activator DMF incubated for 16 to 18 hrs by immunostaining relative to control DMSO; set-up: scale not given: the % may be the effect or the level left
T1 sequence (whole entry): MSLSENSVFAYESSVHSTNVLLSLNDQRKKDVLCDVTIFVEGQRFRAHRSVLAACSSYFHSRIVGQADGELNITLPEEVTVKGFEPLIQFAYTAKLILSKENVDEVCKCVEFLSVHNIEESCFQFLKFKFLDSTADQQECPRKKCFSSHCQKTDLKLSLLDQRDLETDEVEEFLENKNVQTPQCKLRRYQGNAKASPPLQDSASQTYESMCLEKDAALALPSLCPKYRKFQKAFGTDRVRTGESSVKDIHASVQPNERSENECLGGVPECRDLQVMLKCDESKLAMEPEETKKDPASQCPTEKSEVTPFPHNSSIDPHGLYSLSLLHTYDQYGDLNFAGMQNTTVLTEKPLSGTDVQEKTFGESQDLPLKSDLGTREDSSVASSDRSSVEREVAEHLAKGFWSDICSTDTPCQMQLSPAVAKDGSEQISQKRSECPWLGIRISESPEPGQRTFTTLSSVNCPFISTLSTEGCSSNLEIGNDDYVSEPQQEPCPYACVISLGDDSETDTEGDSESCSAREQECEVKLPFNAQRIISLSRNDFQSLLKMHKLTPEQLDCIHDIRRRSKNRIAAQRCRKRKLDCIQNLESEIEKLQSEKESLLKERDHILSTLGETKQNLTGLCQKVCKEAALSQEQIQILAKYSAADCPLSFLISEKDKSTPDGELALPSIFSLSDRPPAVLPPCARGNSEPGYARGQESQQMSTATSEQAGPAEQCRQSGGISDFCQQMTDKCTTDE

[2] = molecular target: T1, Transcription regulator protein BACH1 (Homo sapiens); assay: Inhibition of Bach1 in normal human lung fibroblasts assessed as induction of HMOX protein expression at 0.156 uM in presence of 0.1 uM Nrf2 activator DMF incubated for 16 to 18 hrs by immunostaining relative to control
[3] = molecular target: T1, Transcription regulator protein BACH1 (Homo sapiens); assay: Inhibition of Bach1 in normal human lung fibroblasts assessed as induction of HMOX protein expression at 0.078 uM in presence of 0.3 uM Nrf2 activator DMF incubated for 16 to 18 hrs by immunostaining relative to control
[4] = molecular target: T1, Transcription regulator protein BACH1 (Homo sapiens); assay: Inhibition of Bach1 in normal human lung fibroblasts assessed as induction of HMOX protein expression at 0.019 uM in presence of 0.1 uM Nrf2 activator DMF incubated for 16 to 18 hrs by immunostaining relative to control
[5] = molecular target: T1, Transcription regulator protein BACH1 (Homo sapiens); assay: Inhibition of Bach1 in normal human lung fibroblasts assessed as induction of HMOX protein expression by measuring HMOX positive cells level at 0.039 uM incubated for 16 to 18 hrs by immunostaining relative to control DMSO; set-up: scale not given: the % may be the effect or the level left
[6] = molecular target: T1, Transcription regulator protein BACH1 (Homo sapiens); assay: Inhibition of Bach1 in normal human lung fibroblasts assessed as induction of HMOX protein expression by measuring HMOX positive cells level at 0.078 uM in presence of 0.03 uM Nrf2 activator DMF incubated for 16 to 18 hrs by immunostaining relative to control DMSO; set-up: scale not given: the % may be the effect or the level left
[7] = molecular target: T1, Transcription regulator protein BACH1 (Homo sapiens); assay: Inhibition of Bach1 in normal human lung fibroblasts assessed as induction of HMOX protein expression by measuring HMOX positive cells level at 0.019 uM in presence of 0.03 uM Nrf2 activator DMF incubated for 16 to 18 hrs by immunostaining relative to control DMSO; set-up: scale not given: the % may be the effect or the level left
[8] = molecular target: T1, Transcription regulator protein BACH1 (Homo sapiens); assay: Inhibition of Bach1 in normal human lung fibroblasts assessed as induction of HMOX protein expression at 0.078 uM in presence of 10 uM Nrf2 activator DMF incubated for 16 to 18 hrs by immunostaining relative to control
[9] = molecular target: T1, Transcription regulator protein BACH1 (Homo sapiens); assay: Inhibition of Bach1 in normal human lung fibroblasts assessed as induction of HMOX protein expression at 0.019 uM in presence of 1 uM Nrf2 activator DMF incubated for 16 to 18 hrs by immunostaining relative to control
[10] = molecular target: T1, Transcription regulator protein BACH1 (Homo sapiens); assay: Inhibition of Bach1 in normal human lung fibroblasts assessed as induction of HMOX protein expression at 0.019 uM in presence of 30 uM Nrf2 activator DMF incubated for 16 to 18 hrs by immunostaining relative to control
[11] = molecular target: T1, Transcription regulator protein BACH1 (Homo sapiens); assay: Inhibition of Bach1 in normal human lung fibroblasts assessed as induction of HMOX protein expression by measuring HMOX positive cells level at 0.039 uM in presence of 1 uM Nrf2 activator DMF incubated for 16 to 18 hrs by immunostaining relative to control DMSO; set-up: scale not given: the % may be the effect or the level left
[12] = molecular target: T1, Transcription regulator protein BACH1 (Homo sapiens); assay: Inhibition of Bach1 in normal human lung fibroblasts assessed as induction of HMOX protein expression by measuring HMOX positive cells level at 0.039 uM in presence of 3 uM Nrf2 activator DMF incubated for 16 to 18 hrs by immunostaining relative to control DMSO; set-up: scale not given: the % may be the effect or the level left
[13] = molecular target: T1, Transcription regulator protein BACH1 (Homo sapiens); assay: Inhibition of Bach1 in normal human lung fibroblasts assessed as induction of HMOX protein expression by measuring HMOX positive cells level at 0.156 uM in presence of 30 uM Nrf2 activator DMF incubated for 16 to 18 hrs by immunostaining relative to control DMSO; set-up: scale not given: the % may be the effect or the level left
[14] = molecular target: T1, Transcription regulator protein BACH1 (Homo sapiens); assay: Inhibition of Bach1 in normal human lung fibroblasts assessed as induction of HMOX protein expression by measuring HMOX positive cells level at 0.039 uM in presence of 30 uM Nrf2 activator DMF incubated for 16 to 18 hrs by immunostaining relative to control DMSO; set-up: scale not given: the % may be the effect or the level left
[15] = molecular target: T1, Transcription regulator protein BACH1 (Homo sapiens); assay: Inhibition of Bach1 in normal human lung fibroblasts assessed as induction of HMOX protein expression at 0.039 uM in presence of 3 uM Nrf2 activator DMF incubated for 16 to 18 hrs by immunostaining relative to control
[16] = molecular target: T1, Transcription regulator protein BACH1 (Homo sapiens); assay: Inhibition of Bach1 in normal human lung fibroblasts assessed as induction of HMOX protein expression by measuring HMOX positive cells level at 0.078 uM in presence of 3 uM Nrf2 activator DMF incubated for 16 to 18 hrs by immunostaining relative to control DMSO; set-up: scale not given: the % may be the effect or the level left
[17] = molecular target: T1, Transcription regulator protein BACH1 (Homo sapiens); assay: Inhibition of Bach1 in normal human lung fibroblasts assessed as induction of HMOX protein expression at 0.039 uM incubated for 16 to 18 hrs by immunostaining relative to control
[18] = molecular target: T1, Transcription regulator protein BACH1 (Homo sapiens); assay: Inhibition of Bach1 in normal human lung fibroblasts assessed as induction of HMOX protein expression at 0.039 uM in presence of 0.3 uM Nrf2 activator DMF incubated for 16 to 18 hrs by immunostaining relative to control
[19] = molecular target: T1, Transcription regulator protein BACH1 (Homo sapiens); assay: Inhibition of Bach1 in normal human lung fibroblasts assessed as induction of HMOX protein expression by measuring HMOX positive cells level at 0.019 uM in presence of 10 uM Nrf2 activator DMF incubated for 16 to 18 hrs by immunostaining relative to control DMSO; set-up: scale not given: the % may be the effect or the level left
[20] = molecular target: T1, Transcription regulator protein BACH1 (Homo sapiens); assay: Inhibition of Bach1 in normal human lung fibroblasts assessed as induction of HMOX protein expression by measuring HMOX positive cells level at 0.156 uM in presence of 0.3 uM Nrf2 activator DMF incubated for 16 to 18 hrs by immunostaining relative to control DMSO; set-up: scale not given: the % may be the effect or the level left

Row | Activity [1] [%] | fold change (FC) [2] | fold change (FC) [3] | fold change (FC) [4] | Activity [5] [%] | Activity [6] [%] | Activity [7] [%] | fold change (FC) [8] | fold change (FC) [9] | fold change (FC) [10] | Activity [11] [%] | Activity [12] [%] | Activity [13] [%] | Activity [14] [%] | fold change (FC) [15] | Activity [16] [%] | fold change (FC) [17] | fold change (FC) [18] | Activity [19] [%] | Activity [20] [%] | Structure (SMILES)
1 | 6.49 | 2.54 | 1.73 | 1.15 | 2.31 | 5.99 | 1.18 | 6.46 | 1.68 | 4.65 | 23.5 | 68 | 84 | 90.4 | 3.01 | 81.8 | 1.37 | 1.61 | 94.2 | 50 | CN(C)C(=O)CNC(=O)c1ccc2c(c1)nc(Nc1nc3ccc(C(F)(F)F)cc3s1)n2C
2 |  |  |  |  |  |  |  |  |  |  |  |  |  |  |  |  | 1.09 |  |  |  | CNC(=O)c1ccc2c(c1)nc(Nc1nc3ccc(OC(F)(F)F)cc3s1)n2C
3 | 7.63 | 4.89 | 3.21 | 1.23 | 28 | 33.5 | 4.94 | 6.52 | 2.17 | 4.9 | 38.7 | 78.7 | 92.2 | 91.9 | 4 | 90.3 | 2.51 | 1.81 | 96.1 | 94.5 | Cn1c(Nc2nc3ccc(C(F)(F)F)cc3s2)nc2cc(C(=O)NCCOCCO)ccc21
4 | 8.27 | 1.73 | 1.43 | 1.13 | 5.3 | 1.72 | 1.8 | 5.06 | 1.57 | 4.23 | 23.1 | 75.8 | 98.2 | 87.5 | 2.84 | 55.2 | 1.45 | 1.59 | 92.6 | 30.1 | COCCNC(=O)c1cnc2c(c1)nc(Nc1nc3ccc(OC(F)(F)F)cc3s1)n2C

— ChEMBL document CHEMBL4421728, “Bach1 Inhibitors in Combination with Nrf2 Activators and Pharmaceutical Compositions Thereof” (2017)
